Experimental data from publication PMC11672637, “7-O-Carboxylic Acid-Substituted 3-O-Alkyl Difluoroquercetin; An Aztreonam-Potentiating Agent Against Carbapenemase-Producing Pseudomonas aeruginosa Through Simultaneous Inhibition of Metallo-β-Lactamase and Efflux Pump” (Antibiotics, 2024).
≈ marks a conversion by molar mass, not a printed value. Where two headings read alike, the source gives them in different places.

Experiments:
Type in all cases: cell-based, P. aeruginosa
All CPPA (n = 26) = test: MIC distribution over clinical isolates; details: Pseudomonas aeruginosa
PA-028, blaNDM = test: MIC / checkerboard with ATM; design: key to Susceptibility category: S: susceptible; I: intermediate; R: resistant; details: for MIC: Pseudomonas aeruginosa
PA-003, blaVIM [1] = test: MIC / checkerboard with ATM; design: key to Susceptibility category: S: susceptible; I: intermediate; R: resistant
PA-014, blaGES = test: Time–kill assay; details: 24 h
Procedure: (§1) Aliquots (50 μL) were taken from the incubation mixture at regular time intervals (t = 0, 3, 6, and 24 h), serially diluted in 0.85% NaCl solution, and plated on BAP. Bacterial colonies were counted, and the data are presented as the means of at least three independent experiments.

PA-017, blaNDM = test: Time–kill assay; details: 24 h
Procedure: as §1

PA-003, blaVIM [2] = test: Time–kill assay; details: 24 h
Procedure: as §1

PA-030, blaIMP = test: MIC / checkerboard with ATM; design: key to Susceptibility category: S: susceptible; I: intermediate; R: resistant; details: PA-030
PA-035, blaGES = test: MIC / checkerboard with ATM; design: key to Susceptibility category: S: susceptible; I: intermediate; R: resistant; details: for MIC: Pseudomonas aeruginosa
PA-039, blaNDM = test: MIC / checkerboard with ATM; design: key to Susceptibility category: S: susceptible; I: intermediate; R: resistant; details: PA-039
PA-036, blaNDM = test: MIC / checkerboard with ATM; design: key to Susceptibility category: S: susceptible; I: intermediate; R: resistant; details: PA-036
PA-033, blaNDM = test: MIC / checkerboard with ATM; design: key to Susceptibility category: S: susceptible; I: intermediate; R: resistant; details: for MIC: Pseudomonas aeruginosa
PA-042, blaIMP/NDM = test: MIC / checkerboard with ATM; design: key to Susceptibility category: S: susceptible; I: intermediate; R: resistant; details: for MIC: Pseudomonas aeruginosa

- MIC50 (All CPPA (n = 26); read-out: MIC50 of ATM, 5 at 0 mg/L): 16 µg/mL (≈ 36.7 µM)
- MIC90 (All CPPA (n = 26); read-out: MIC90 of ATM, 5 at 0 mg/L): 32 µg/mL (≈ 73.5 µM)
- MIC (PA-028, blaNDM; PA-028, Table S2, read-out: MIC value): 4 µg/mL
- MIC (PA-028, blaNDM; read-out: MIC of ATM, PA-028, ATM alone (5 at 0 mg/L)): 8 µg/mL
- MIC (PA-003, blaVIM [1]; Pseudomonas aeruginosa, read-out: MIC of ATM): 32 µg/mL
- MIC (PA-030, blaIMP; Pseudomonas aeruginosa, Table S2, read-out: MIC value): 32 µg/mL
- MIC (PA-035, blaGES; PA-035, Table S2, read-out: MIC value): 8 µg/mL
- MIC (PA-035, blaGES; read-out: MIC of ATM, PA-035, ATM alone (5 at 0 mg/L)): 8 µg/mL
- MIC (PA-033, blaNDM; PA-033, Table S2, read-out: MIC value): 2 µg/mL
- MIC (PA-033, blaNDM; read-out: MIC of ATM, PA-033, ATM alone (5 at 0 mg/L)): 2 µg/mL
- MIC (PA-042, blaIMP/NDM; PA-042, Table S2, read-out: MIC value): 2 µg/mL
- MIC (PA-042, blaIMP/NDM; read-out: MIC of ATM, PA-042, ATM alone (5 at 0 mg/L)): 2 µg/mL
Structure (SMILES): C[C@H]1[C@H](NC(=O)/C(=N\OC(C)(C)C(=O)O)c2csc(N)n2)C(=O)N1S(=O)(=O)O [ATM, aztreonam]
- Susceptibility to ATM (PA-028, blaNDM; PA-028, ATM alone): S (S (sensitive, MIC ≤ 8 mg/L))
- Susceptibility category (PA-028, blaNDM; PA-028, Table S2): S
- Susceptibility to ATM (PA-003, blaVIM [1]; PA-003, ATM alone): R (R (resistant, MIC ≥ 32 mg/L))
- Susceptibility category (PA-003, blaVIM [1]; PA-003, Table S2): I
- Log CFU/mL, ATM only (PA-014, blaGES; ATM 1/2 MIC): 8.83 Log CFU/mL
- Log CFU/mL, ATM only (PA-014, blaGES; ATM 1/4 MIC): 9.33 Log CFU/mL
- Log CFU/mL, ATM only (PA-014, blaGES; ATM 1 MIC): 7.68 Log CFU/mL
- Log CFU/mL, ATM only (PA-014, blaGES; ATM 2 MIC): 2.45 Log CFU/mL
- Log CFU/mL, ATM only (PA-017, blaNDM; ATM 1/2 MIC): 9.97 Log CFU/mL
- Log CFU/mL, ATM only (PA-017, blaNDM; ATM 1/4 MIC): 10.74 Log CFU/mL
- Log CFU/mL, ATM only (PA-017, blaNDM; ATM 1 MIC): 6.52 Log CFU/mL
- Log CFU/mL, ATM only (PA-017, blaNDM; ATM 2 MIC): 0.12 Log CFU/mL
- Log CFU/mL, ATM only (PA-003, blaVIM [2]; ATM 1/2 MIC): 9.88 Log CFU/mL
- Log CFU/mL, ATM only (PA-003, blaVIM [2]; ATM 1/4 MIC): 10.18 Log CFU/mL
- Log CFU/mL, ATM only (PA-003, blaVIM [2]; ATM 1 MIC): 9.13 Log CFU/mL
- Log CFU/mL, ATM only (PA-003, blaVIM [2]; ATM 2 MIC): 6.40 Log CFU/mL
- Susceptibility to ATM (PA-030, blaIMP; ATM alone): R (R (resistant, MIC ≥ 32 mg/L))
- Susceptibility category (PA-030, blaIMP; Table S2): R
- Susceptibility to ATM (PA-035, blaGES; PA-035, ATM alone): S (S (sensitive, MIC ≤ 8 mg/L))
- Susceptibility category (PA-035, blaGES; PA-035, Table S2): S
- Susceptibility to ATM (PA-039, blaNDM; ATM alone): I (I (intermediate, MIC = 16 mg/L))
- Susceptibility category (PA-039, blaNDM; Table S2): R
- Susceptibility to ATM (PA-036, blaNDM; ATM alone): I (I (intermediate, MIC = 16 mg/L))
- Susceptibility category (PA-036, blaNDM; Table S2): I
- Susceptibility to ATM (PA-033, blaNDM; PA-033, ATM alone): S (S (sensitive, MIC ≤ 8 mg/L))
- Susceptibility category (PA-033, blaNDM; PA-033, Table S2): S
- Susceptibility to ATM (PA-042, blaIMP/NDM; PA-042, ATM alone): S (S (sensitive, MIC ≤ 8 mg/L))
- Susceptibility category (PA-042, blaIMP/NDM; PA-042, Table S2): S
